Measured values reported in US12540128B2, “Substituted pyridazinones as herbicides” (SYNGENTA CROP PROTECTION AG, priority 2019, dated 2026).

Tests used:
Format in all cases: in vivo
Conditions in all cases: 250 g/ha, after 13 days
[1] = tested on: Ipomoea hederacea (IPOHE); assay: B2 Post-Emergence Efficacy Test 2
Experimental: (§1) Seeds of a variety of test species are sown in standard soil in pots:— Amaranthus retoflexus (AMARE), Setaria faberi (SETFA), Echinochloa crus-galli (ECHCG), Ipomoea hederacea (IPOHE), Zea Mays (ZEAMX), Abutilon theophrasti (ABUTH). After 8 days cultivation (post-emergence) under controlled conditions in a glasshouse (at 24/16° C., day/night; 14 hours light; 65% humidity), the plants are sprayed with an aqueous spray solution derived from the formulation of the technical active ingredient in acetone/water (50:50) solution containing 0.5% Tween 20 (polyoxyethylene sorbitan monolaurate, CAS RN 9005-64-5). Compounds are applied at 250 g/ha. The test plants are then grown in a glasshouse under controlled conditions in a glasshouse (at 24/16° C., day/night; 14 hours light; 65% humidity) and watered twice daily. After 13 days, the test is evaluated for the percentage damage caused to the plant. The biological activities are assessed on a five point scale (5=80-100%; 4=60-79%; 3=40-59%; 2=20-39%; 1=0-19%). A blank value in the table is indicative that the compound was not tested on that species.

Zea Mays (ZEAMX) [2] = assay: B2 Post-Emergence Efficacy Test 2
Experimental: as §1

[3] = tested on: Amaranthus retoflexus (AMARE); assay: B2 Post-Emergence Efficacy Test 2
Experimental: as §1

Setaria faberi (SETFA) [4] = assay: B2 Post-Emergence Efficacy Test 2
Experimental: as §1

[5] = tested on: Abutilon theophrasti (ABUTH); assay: B2 Post-Emergence Efficacy Test 2
Experimental: as §1

[6] = tested on: Echinochloa crus-galli (ECHCG); assay: B2 Post-Emergence Efficacy Test 2
Experimental: as §1

[7] = tested on: Ipomoea hederacea (IPOHE); assay: B4 Pre-Emergence Efficacy Test 2
Experimental: (§2) Seeds of a variety of test species were sown in standard soil in pots: Amaranthus retoflexus (AMARE), Setaria faberi (SETFA), Echinochloa crus-galli (ECHCG), Ipomoea hederacea (IPOHE), Zea Mays (ZEAMX), Abutilon theophrasti (ABUTH). After cultivation for one day (pre-emergence) under controlled conditions in a glasshouse (at 24/16° C., day/night; 14 hours light; 65% humidity), the plants were sprayed with an aqueous spray solution derived from the formulation of the technical active ingredient in acetone/water (50:50) solution containing 0.5% Tween 20 (polyoxyethelyene sorbitan monolaurate, CAS RN 9005-64-5). Compounds are applied at 250 g/ha. The test plants were then grown in a glasshouse under controlled conditions (at 24/16° C., day/night; 14 hours light; 65% humidity) and watered twice daily. After 13 days, the test is evaluated for the percentage damage caused to the plant. The biological activities are assessed on a five point scale (5=80-100%; 4=60-79%; 3=40-59%; 2=20-39%; 1=0-19%). A blank value in the table is indicative that the compound was not tested on that species.

Zea Mays (ZEAMX) [8] = assay: B4 Pre-Emergence Efficacy Test 2
Experimental: as §2

[9] = tested on: Amaranthus retoflexus (AMARE); assay: B4 Pre-Emergence Efficacy Test 2
Experimental: as §2

Setaria faberi (SETFA) [10] = assay: B4 Pre-Emergence Efficacy Test 2
Experimental: as §2

[11] = tested on: Abutilon theophrasti (ABUTH); assay: B4 Pre-Emergence Efficacy Test 2
Experimental: as §2

[12] = tested on: Echinochloa crus-galli (ECHCG); assay: B4 Pre-Emergence Efficacy Test 2
Experimental: as §2

Row | SMILES | percentage damage caused to the plant, five point scale, IPOHE [1] | percentage damage caused to the plant, five point scale, ZEAMX (Zea Mays (ZEAMX) [2]) | percentage damage caused to the plant, five point scale, AMARE [3] | percentage damage caused to the plant, five point scale, SETFA (Setaria faberi (SETFA) [4]) | percentage damage caused to the plant, five point scale, ABUTH [5] | percentage damage caused to the plant, five point scale, ECHCG [6] | percentage damage caused to the plant, five point scale, IPOHE [7] | percentage damage caused to the plant, five point scale, ZEAMX (Zea Mays (ZEAMX) [8]) | percentage damage caused to the plant, five point scale, AMARE [9] | percentage damage caused to the plant, five point scale, SETFA (Setaria faberi (SETFA) [10]) | percentage damage caused to the plant, five point scale, ABUTH [11] | percentage damage caused to the plant, five point scale, ECHCG [12]
1 | Cc1nn(C)c(=O)c(-c2c(F)ccc(Cl)c2CCc2nc3ccccc3o2)c1O [Compound 1.359] | 2 (2=20-39%) | 1 (1=0-19%) | 3 (3=40-59%) | 3 (3=40-59%) | 4 (4=60-79%) | 3 (3=40-59%) | 4 (4=60-79%) | 3 (3=40-59%) | 5 (5=80-100%) | 5 (5=80-100%) | 5 (5=80-100%) | 5 (5=80-100%)
2 | Cc1nn(C)c(=O)c(-c2c(F)ccc(Cl)c2CCc2ccc3sccc3c2)c1O [Compound 1.348] | 4 (4=60-79%) | 4 (4=60-79%) | 4 (4=60-79%) | 4 (4=60-79%) | 3 (3=40-59%) | 4 (4=60-79%) | 5 (5=80-100%) | 1 (1=0-19%) | 5 (5=80-100%) | 3 (3=40-59%) | 3 (3=40-59%) | 4 (4=60-79%)
3 | Cc1nc2ccc(CCc3c(Cl)ccc(F)c3-c3c(O)c(C)nn(C)c3=O)cc2o1 [Compound 1.341] | 5 (5=80-100%) | 4 (4=60-79%) | 5 (5=80-100%) | 4 (4=60-79%) | 5 (5=80-100%) | 5 (5=80-100%) | 5 (5=80-100%) | 4 (4=60-79%) | 5 (5=80-100%) | 5 (5=80-100%) | 5 (5=80-100%) | 5 (5=80-100%)
4 | Cc1nn(C)c(=O)c(-c2c(F)ccc(Cl)c2CCc2ccc3c(c2)OC(C)(C)C3)c1O [Compound 1.340] | 4 (4=60-79%) | 5 (5=80-100%) | 5 (5=80-100%) | 5 (5=80-100%) | 5 (5=80-100%) | 5 (5=80-100%) | 5 (5=80-100%) | 3 (3=40-59%) | 5 (5=80-100%) | 5 (5=80-100%) | 5 (5=80-100%) | 5 (5=80-100%)
